Source: US5952511A, “Indolin-2-one derivatives” (Chugai Seiyaku Kabushiki Kaisha, priority 1993, dated 1999)

What was measured:
[1] = biological target: T1, CCK-B receptors (rat cerebral cortex) (Rattus norvegicus, UniProt P30553); assay: CCK-B Receptor Binding Test in Rat Cerebral Cortex (Test Example 3); parameters: species or system rat (Sprague-Dawley, male); conditions: inhibition of specific 125I-CCK-8 sulfated binding (15 pM), 25° C., 120 min
T1 construct: Cerebral cortex was minced in the same buffer, and homogenized with Polytron; from tissue; host or cells: cerebral cortex membrane fraction of Sprague-Dawley male rats
T1 sequence (P30553 1-452): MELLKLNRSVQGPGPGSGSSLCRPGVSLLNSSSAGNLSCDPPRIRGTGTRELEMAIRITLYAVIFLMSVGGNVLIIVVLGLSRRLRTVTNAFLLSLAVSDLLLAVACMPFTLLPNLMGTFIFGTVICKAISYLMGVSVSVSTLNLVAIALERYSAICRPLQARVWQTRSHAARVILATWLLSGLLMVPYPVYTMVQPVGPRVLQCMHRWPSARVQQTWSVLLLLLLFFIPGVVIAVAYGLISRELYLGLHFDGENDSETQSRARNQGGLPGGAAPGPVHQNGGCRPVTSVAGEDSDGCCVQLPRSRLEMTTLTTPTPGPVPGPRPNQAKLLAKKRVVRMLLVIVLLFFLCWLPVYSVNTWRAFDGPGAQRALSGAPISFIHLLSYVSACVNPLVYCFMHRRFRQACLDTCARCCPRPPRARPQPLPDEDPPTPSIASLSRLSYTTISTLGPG
Experimental: CCK-B Receptor Binding Test in Rat Cerebral Cortex
A rat cortical membrane fraction was prepared in accordance with the method of Chang, et al., Proc. Natl. Acad. Sci., U.S.A., 83, 4923 (1986). Sprague-Dawley male rats were sucrified and the brains were removed and immersed in a 50 mM Tris-HCl buffer (pH 7.4) under ice-cooling, and the cortex was dissected. Cerebral cortex was minced in the same buffer, and homogenized with Polytron. The homogenate was centrifuged at 2,500 g, and the supernatant was further centrifuged at 50,000 g. The pellet was resuspended in a reaction buffer solution (10 mM HEPES, 5 mM MgCl2, 1 mM EGTA, 130 mM NaCl; pH 6.5).
To 150 μl of the resulting rat cerebral cortex suspension were added 20 μl of ^125 I-CCK-8 sulfated (final concentration: 15 pM) and 10 μl of a test compound or a solvent (for total binding) or 1 μM CCK-8 sulfated (for nonspecific binding), and the reaction buffer solution was added there to make 1 ml. The reaction mixture was incubated at 25° C. for 120 minutes, followed by filtration through a GF/B filter (produced by Whatman). The radio-activity of the membrane fraction adsorbed onto the filter was measured with a gamma-counter.
The specific binding to CCK-B receptors was obtained from a difference between the total binding and the nonspecific binding. The IC50 of the test compound in inhibition of specific binding was calculated.

[2] = biological target: T2, gastrin receptors (guinea pig gastric glands) (Cavia porcellus, UniProt H0VZC5); assay: Gastrin Receptor Binding Test in Guinea Pig Gastric Glands (Test Example 1); parameters: species or system guinea pig (Hartley, male); conditions: inhibition of specific 125I-gastrin I human binding (22.5 pM), 25° C., 45 min
T2 construct: The gastric glands were isolated from the tissue with a pipette; from tissue; host or cells: isolated gastric glands from gastric mucosa of Hartley male guinea pigs
T2 sequence (H0VZC5 1-426): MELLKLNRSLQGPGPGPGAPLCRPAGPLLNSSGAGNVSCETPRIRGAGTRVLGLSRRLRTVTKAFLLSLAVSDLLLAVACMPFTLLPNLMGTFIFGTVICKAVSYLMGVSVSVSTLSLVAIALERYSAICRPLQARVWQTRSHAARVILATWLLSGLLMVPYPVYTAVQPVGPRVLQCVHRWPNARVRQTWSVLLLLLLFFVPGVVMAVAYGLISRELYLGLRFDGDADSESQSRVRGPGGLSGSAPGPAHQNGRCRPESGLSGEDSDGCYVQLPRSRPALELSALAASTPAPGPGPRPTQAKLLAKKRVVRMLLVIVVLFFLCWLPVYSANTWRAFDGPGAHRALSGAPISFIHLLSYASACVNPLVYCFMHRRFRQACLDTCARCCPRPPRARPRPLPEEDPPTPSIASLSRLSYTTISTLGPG
Experimental: Gastrin Receptor Binding Test in Guinea Pig Gastric Glands
Preparation of Gastric Glands:
Guinea pig gastric glands were prepared according to the method of Chang, et al., Biochem. Biophys. Res. Commun., 134, 895 (1986). The gastric mucosa of a Hartley male guinea pig was peeled off. After washing, the mucosa was minced with scissors in buffer A (Eagle's MEM containing 2 mM L-glutamine and 25 mM HEPES; pH 7.4). After washing, the minced tissue was incubated in buffer A containing 0.025% collagenase, 0.01% soy bean trypsin inhibitor, and 0.1% BSA at 37° C. for 60 minutes under 95% O2 and 5% CO2. The gastric glands were isolated from the tissue with a pipette, washed twice with buffer A, and filtered through a mesh. Then, the gastric glands were obtained by centrifugation.
Guinea pig gastric glands were resuspended in buffer B (Hank's solution containing 10 mM HEPES and 0.2% BSA; pH 7.4) (10 ml of buffer B per guinea pig).
To 200 μl of the suspension containing the resuspended isolated gastric glands were added 20 μl of ^125 I-gastrin I human (final concentration: 22.5 pM). Then, 10 μl of a test compound or a solvent (for total binding) or 10 μM Pentagastrin (for nonspecific binding), and buffer B was added there to make a total volume of 1 ml. The reaction mixture was incubated at 25° C. for 45 minutes and then centrifuged at 12000 g. The supernatant was removed by suction, and the radioactivity of the isolated gastric glands was measured with a gamma-counter.
The specific binding of gastrin to gastrin receptors was obtained from a difference between the total binding and the nonspecific binding. The IC50 of the test compound in inhibition of specific binding was calculated.

[3] = tested on: gastric acid secretion; assay: Inhibitory Activity on Gastric Acid Secretion in Pylorus Ligated Rats (Test Example 2); format: in vivo, rat (Sprague-Dawley, male); conditions: Rattus norvegicus, intraduodenal, 10 mg/kg, i.d., 4 h
Experimental: Inhibitory Activity on Gastric Acid Secretion in Pyrolus Ligated Rats
Sprague-Dawley male rats weighing about 200 g were deprived of food for 24 hours while allowed water ad libitum. The abdomen was opened under anesthesia with ethyl ether, the pyrolus ligated, and the abdomen closed. The rats were deprived of food and water for 4 hours until they were surcrified with ethyl ether. The stomach was removed, and gastric juice was collected and measured. The gastric juice was centrifuged at 3000 rpm, and the supernatant was titrated up to pH 7.0 with 0.1N NaOH solution to obtain the acidity of the gastric juice. The amount of the gastric acid output was calculated by multiplying the gastric juice volume by the acidity, and the percent inhibition of acid secretion was obtained according to the following equation. A test compound, suspended in a 3% gum arabic solution, was administered intraduodenally at a dose of 2 ml/kg immediately after the pyrolus ligation.
Inhibition (%)=[(Average amount of gastric acid output in control group--Average amount of gastric acid output in test group)/Average amount of gastric acid secreted […]]×100

IC50 [1] [nM]	IC50 [2] [nM]	SMILES	inhibition in vivo at 10 mg/kg [3] [%]
0.76	–	Cc1ccc(NC(=O)CC2(NC(=O)Nc3ccc(C)cc3)C(=O)N(Cc3ccccn3)c3ccccc32)cc1 (racemic) [Example 65, (RS)-3-((4-Methylhenyl)aminocarbonylmethyl)-3-(N'-(4-methylphenyl)ureido)-1-(2-pyridylmethyl)indolin-2-one]	–
2.8	6.5	CCOC(CN1C(=O)C(CC(=O)Nc2ccc(N(C)C)cc2)(NC(=O)Nc2cccc(OC)c2)c2ccccc21)OCC (racemic) [Example 156]	69
0.07	–	CCOC(CN1C(=O)C(NC(=O)Nc2ccc(C)cc2)(NC(=O)Nc2ccc(C)cc2)c2ccccc21)OC (racemic) [Example 7, (RS)-1-(2-Ethoxy-2-methoxyethyl)-3,3-bis(N'-(4-methylphenyl)ureido)indolin-2-one]	–
0.36	4.6	CCOC(CN1C(=O)C(CC(=O)Nc2ccc(N(C)C)cc2)(NC(=O)Nc2ccc(C)cc2)c2ccccc21)OCC (single isomer, unassigned; (+)) [Example 180, (+)-1-(2,2-Diethoxyethyl)-3-((4-(N,N-dimethylamino)phenyl)aminocarbonylmethyl)-3-(N'-(4-methylphenyl)ureido)indolin-2-one]	73
0.45	5.5	CCOC(CN1C(=O)C(CC(=O)Nc2ccc(N(C)C)cc2)(NC(=O)Nc2cccc(OC)c2)c2ccccc21)OCC (single isomer, unassigned; (+)) [Example 191]	78
0.35	5.1	CCOC(CN1C(=O)C(CC(=O)Nc2cccc(C)c2)(NC(=O)Nc2ccc(C)cc2)c2ccccc21)OCC (racemic) [Example 111, (RS)-1-(2,2-Diethoxyethyl)-3-((3-methylphenyl)aminocarbonylmethyl)-3-(N'-(4-methylphenyl)ureido)indolin-2-one]	69
0.42	0.54	CCOC(CN1C(=O)C(CC(=O)Nc2ccc(C)cc2)(NC(=O)Nc2ccc(C)cc2)c2ccccc21)OCC (single isomer, unassigned; (+)) [Example 174, (+)-1-(2,2-Diethoxyethyl)-3-(4-methylphenyl)aminocarbonylmethyl-3-(N'-(4-methylphenyl)ureido)indolin-2-one]	70
0.5	2.2	CCOC(CN1C(=O)C(CC(=O)Nc2ccc(C)cn2)(NC(=O)Nc2ccc(C)cc2)c2ccccc21)OCC (racemic) [Example 138, (RS)-1-(2,2-Diethoxyethyl)-3-(N'-(4-methylphenyl)ureido)-3-((5-methylpyrido-2-yl)aminocarbonylmethyl)indolin-2-one]	69
1.2	1.1	CCOC(CN1C(=O)C(CC(=O)Nc2ccc(C)cc2)(NC(=O)Nc2ccc(C)cc2)c2ccccc21)OCC (racemic) [Example 71, (RS)-1-(2,2-Diethoxyethyl)-3-((4-methylphenyl)aminocarbonylmethyl)-3-(N'-(4-methylphenyl)ureido)indolin-2-one]	48
0.9	4.3	CCOC(CN1C(=O)C(CC(=O)Nc2ccc(C)cc2)(NC(=O)Nc2ccc(C#N)cc2)c2ccccc21)OCC (racemic) [Example 92, (RS)-3-(N'-(4-Cyanophenyl)ureido)-1-(2,2-diethoxyethyl)-3-((4-methylphenyl)aminocarbonylmethyl)indolin-2-one]	57
2.3	4.9	CCOC(CN1C(=O)C(CC(=O)Nc2ccc(N(C)C)cc2)(NC(=O)Nc2ccc(C)cc2)c2ccccc21)OCC (racemic) [Example 130, (RS)-1-(2,2-Diethoxyethyl)-3-((4-(N,N-dimethylamino)phenyl)aminocarbonylmethyl)-3-(N'-(4-methylphenyl)ureido)indolin-2-one]	71
0.56	1.4	CCOC(CN1C(=O)C(CC(=O)Nc2ccc(C)cn2)(NC(=O)Nc2cccc(OC)c2)c2ccccc21)OCC (racemic) [Example 158, (RS)-1-(2,2-Diethoxyethyl)-3-(N'-(3-methoxyphenyl)ureido)-3-((5-methylpyrido-2-yl)aminocarbonylmethyl)indolin-2-one]	66
0.76	–	Cc1ccc(NC(=O)CC2(NC(=O)Nc3ccc(C)cc3)C(=O)N(CCc3ccccc3)c3ccccc32)cc1 (racemic) [Example 66, (RS)-3-((4-Methylphenyl)aminocarbonylmethyl)-3-(N'-(4-methylphenyl)ureido)-1-(2-phenylethyl)indolin-2-one]	–
1.2	–	Cc1ccc(NC(=O)CC2(NC(=O)Nc3ccc(C)cc3)C(=O)N(Cc3ccccc3)c3ccccc32)cc1 (racemic) [Example 62, (RS)-1-Benzyl-3-((4-methylphenyl)aminocarbonylmethyl)-3-(N'-(4-methylphenyl)ureido)indolin-2-one]	–
–	2.9	CCOC(CN1C(=O)C(CC(=O)Nc2cccc(OC)c2)(NC(=O)Nc2cccc(OC)c2)c2ccccc21)OCC (racemic) [Example 151, (RS)-1-(2,2-Diethoxyethyl)-3-((3-methoxyphenyl)aminocarbonylmethyl)-3-(N'-(3-methoxyphenyl)ureido)indolin-2-one]	62
–	5.3	CCOC(CN1C(=O)C(CC(=O)Nc2ccc(F)cc2)(NC(=O)Nc2ccc(C)cc2)c2ccccc21)OCC (racemic) [Example 124, (RS)-1-(2,2-Diethoxyethyl)-3-((4-fluorophenyl)aminocarbonylmethyl)-3-(N'-(4-methylphenyl)ureido)indolin-2-one]	54
